Tests used:
HIF-1α = assay: Phase 1a multiple ascending dose study: proportion of HIF-1α positive cells in colonic biopsies (immunohistochemistry, manual assessment); format: in vivo, human; details: for Proportion of HIF-1α Positive Cells, CFB (change from baseline), Mean / Proportion of HIF-1α Positive Cells, CFB (change from baseline), Median: baseline to Day 8
Description: Manual assessment of the proportion of HIF-1α positive cells was conducted in 10 regions of interest, selected in whole tissue sections. (Note, the study was amended to add this immunohistochemistry analysis; thus data is only available for cohorts 4 and 5 (120 mg and 60 mg), cohorts 1-3 lacked this type of biopsy).
Table 50 presents the proportions of HIF-1α positive cells evaluated at baseline and Day 8, and the change from baseline to Day 8 of the proportion of HIF-1α positive cells. The mean proportion of HIF-1α positive cells ranged from 1% to 80% across all experimental groups.

[1] = Phase 1a multiple ascending dose study (oral solution): safety and tolerability; format: in vivo, human
Description: The primary objective of the study was to assess the safety and tolerability of ascending doses of Compound 1 after multiple oral doses administration. The safety endpoints included TEAE incidence and severity, clinically significant changes in vital signs, ECG parameters, clinical laboratory tests and physical examination.
Safety and tolerability were assessed by review of vital signs, laboratory results (serum chemistry, hematology and urinalysis), ECG, physical examination findings, AEs, and PK assessment following the Day 1 and Day 7 doses. […] One event of vomiting led to early trial discontinuation in the 240 mg dose group.

[2] = Pooled (60 mg and 120 mg), Baseline
[3] = Pooled (60 mg and 120 mg), Day 8

With `CC(C)(C)OC(=O)N1CCN(Cc2ccn(Cc3ccc(Cl)cc3)c(=O)c2O)CC1` [Compound 1, tert-butyl 4-((1-(4-chlorobenzyl)-3-hydroxy-2-oxo-1,2-dihydropyridin-4-yl)methyl)piperazine-1-carboxylate] the “Proportion of HIF-1α Positive Cells, Mean” value (HIF-1α; 60 mg, Baseline) was 6.3%, the “Proportion of HIF-1α Positive Cells, Median” value (HIF-1α; 60 mg, Baseline) was 5.8% and the “Proportion of HIF-1α Positive Cells, Mean” value (HIF-1α; 60 mg, Day 8) was 44.5%. For the same molecule, the “Proportion of HIF-1α Positive Cells, Median” value (HIF-1α; 60 mg, Day 8) was 46.5%, the “Proportion of HIF-1α Positive Cells, CFB (change from baseline), Mean” value (from here on “Proportion … (change from baseline), Mean”) (HIF-1α; 60 mg) was 38.3% and the “Proportion of HIF-1α Positive Cells, CFB (change from baseline), Median” value (from here on “Proportion … (change from baseline), Median”) (HIF-1α; 60 mg) was 38.0%. For the same molecule, the “Proportion of HIF-1α Positive Cells, Mean” value (HIF-1α; 120 mg, Baseline) was 12.0%, the “Proportion of HIF-1α Positive Cells, Median” value (HIF-1α; 120 mg, Baseline) was 6.3% and the “Proportion of HIF-1α Positive Cells, Mean” value (HIF-1α; 120 mg, Day 8) was 44.1%. For the same molecule, the “Proportion of HIF-1α Positive Cells, Median” value (HIF-1α; 120 mg, Day 8) was 45.3%, the “Proportion … (change from baseline), Mean” value (HIF-1α; 120 mg) was 32.1% and the “Proportion … (change from baseline), Median” value (HIF-1α; 120 mg) was 28.5%. For the same molecule, the “Proportion of HIF-1α Positive Cells, Mean” value (HIF-1α; [2]) was 9.1%, the “Proportion of HIF-1α Positive Cells, Median” value (HIF-1α; [2]) was 5.8% and the “Proportion of HIF-1α Positive Cells, Mean” value (HIF-1α; [3]) was 44.3%. For the same molecule, the “Proportion of HIF-1α Positive Cells, Median” value (HIF-1α; [3]) was 45.3%, the “Proportion … (change from baseline), Mean” value (HIF-1α; Pooled (60 mg and 120 mg)) was 35.2% and the “Proportion … (change from baseline), Median” value (HIF-1α; Pooled (60 mg and 120 mg)) was 29.0%. The “Increase from baseline to Day 8 in proportion of HIF-1α positive cells [mean±SD]” value (HIF-1α; combined group (Pooled; 120 mg and 60 mg cohorts)) was 35.2+28.8, the Tolerability ([1]; 240 mg dose once daily) was “less well tolerated” and the Tolerability ([1]; doses up to 120 mg once daily for 8 days) was “generally well tolerated”.
